# Results taken from patent publication US7323541B2, “Polypeptide DNA thereof and use of the same” (Takeda Pharmaceutical Company Limited, priority 2001, dated 2008).
# Positions count from the first letter of the chain named. Where no end group is shown, it is not given here.
# How the values were obtained:
# [1] = target: T1, TGR23-2 expressing CHO cells (Homo sapiens, UniProt Q6W5P4, N107I/Q344R); assay: Enhancing activity of intracellular cAMP production; format: cell-based
# T1 construct: the clones having the cDNA of TGR23-2, which is contained in pTB2174, were selected; expressed in transfected cells; host or cells: hamster CHO/dhfr- cells, vector pAKKO-111H (pAKKO-TGR23-2)
# T1 sequence (Q6W5P4 1-371 N107I/Q344R): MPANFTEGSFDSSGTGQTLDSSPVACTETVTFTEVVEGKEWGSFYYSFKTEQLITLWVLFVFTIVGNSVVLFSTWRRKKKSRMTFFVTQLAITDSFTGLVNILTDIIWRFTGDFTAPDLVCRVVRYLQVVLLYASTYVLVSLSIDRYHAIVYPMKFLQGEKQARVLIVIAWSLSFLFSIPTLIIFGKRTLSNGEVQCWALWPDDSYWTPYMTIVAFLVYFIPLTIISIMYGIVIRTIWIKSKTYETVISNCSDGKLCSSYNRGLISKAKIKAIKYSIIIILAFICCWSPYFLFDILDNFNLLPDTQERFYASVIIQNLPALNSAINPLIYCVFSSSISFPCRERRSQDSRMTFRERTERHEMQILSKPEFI
# Protocol: (§1) The CHO/TGR23-2 cells prepared in Example 1 and selected in Example 2 were plated on 24-well plate at 7×10^4 cells/well and cultured for 48 hours. The cells were washed with αMEM medium (pH7.5) containing 0.2 mM 3-isobutyl-methylxanthine, 0.05% BSA and 20 mM HEPES (hereafter, αMEM medium (pH7.5) containing 0.2 mM 3-isobutyl-methylxanthine, 0.05% BSA and 20 mM HEPES may be referred to as a reaction buffer). Subsequently, 0.5 ml of the reaction buffer was added, and the solution was incubated for 30 minutes in the incubator. The reaction buffer was removed and 0.25 ml of the reaction buffer was freshly added to the cells. Then, the cells were admixed with a sample and 0.25 ml of the reaction buffer containing 2 μM forskoline, and incubated at 37° C. for 30 minutes. Intracellular cAMP was extracted by removing the reaction solution and adding 0.5 ml of the solution for cell lysis attached with cAMP EIA Kit (Applied Biosystems). The cAMP level in the extract was quantified with the same kit. Based on this measured value, a calculation was made using the following formula, and the enhancing/inhibiting activity for cAMP production was represented by % of control. The activity of the sample-adding group was calculated using a control value configured in each plate. % of control=(X−C)/(T−C)×100
# (§2) X: The cAMP level in the sample-adding group
# (§3) T: The means of the cAMP level in 3 wells of positive control (no sample, with stimulus of forskoline)
# (§4) C: The means of the cAMP level in 3 wells of negative control (no sample, without stimulus of forskoline)
# In addition, for the same sample, in accordance with the method shown in Example 4, an arachidonic acid metabolite releasing activity was assayed.
# Four microlitters each of the above-mentioned HPLC active fractions of rat whole brain extracts (Fraction numbers 18, 20 and 22 to 23) was added to 100 μl of 0.2 M ammonium acetate and incubated at 37° C. for 2 hours with 3 μg of Pronase. Subsequently, Pronase added, was inactivated by heating in boiling water for 10 minutes. To this solution, one ml of distilled water containing 0.05 mg of BSA and 0.05 mg of CHAPS was added. Further, it was lyophilized. For the lyophilized sample, enhancing activity for intracellular cAMP production was assayed by adding to TGR23-2 expressing CHO cells according to the method shown in Example 3.
# (§5) Human TGR23-2 ligand (1-20) prepared by the method described in Example 17 was administered to TGR23-1 expressing CHO cells and TGR23-2 expressing CHO cells at a variety of concentrations according to the method described in Example 3, and the enhancing activity of intracellular cAMP production was determined.
# Further, human TGR23-2 ligand (1-20) and rat TGR23-2 ligand (1-18) prepared by the method described in Example 19 were administered to TGR23-1 expressing CHO cells and TGR23-2 expressing CHO cells at a variety of concentrations, and the same assay as described above was carried out under the condition of no forskolin. A calculation was made using the following formula, and the enhancing activity for cAMP production was represented by % of control: % of control=X/C×100;
# X: The cAMP level in the sample-adding group; and
# C: Control (no sample, without stimulus of forskoline).
# [2] = target: T2, TGR23-1 expressing CHO cells (Homo sapiens, UniProt Q6W5P4); assay: as above; format: cell-based
# T2 construct: the clones having the cDNA of TGR23-1, which is contained in pTB2173, were selected; expressed in transfected cells; host or cells: hamster CHO/dhfr- cells, vector pAKKO-111H (pAKKO-TGR23-1), clones No. 49 and No. 52
# T2 sequence (Q6W5P4 1-371): T1 sequence (Q6W5P4 1-371 N107I/Q344R) with I107N, R344Q
# Protocol: as §1, §2, §3, §4
# as §5, with “determined. […]” for “determined.”
Sequence,enhancing activity of intracellular cAMP production ([1]; no forskolin),enhancing activity of intracellular cAMP production ([1]; with forskolin),enhancing activity of intracellular cAMP production ([2]; no forskolin),enhancing activity of intracellular cAMP production ([2]; with forskolin)
"SFRNGVGSGVKKTSFRRA [rat TGR23-2 ligand (1-18), Ser-Phe-Arg-Asn-Gly-Val-Gly-Ser-Gly-Val-Lys-Lys-Thr-Ser-Phe-Arg-Arg-Ala]",enhance the intracellular cAMP production,specifically exhibits an enhancing activity for cAMP production,enhance the intracellular cAMP production,
SFRNGVGTGMKKTSFQRAKS [human TGR23-2 ligand (1-20)],enhance the intracellular cAMP production,clearly enhances cAMP production,enhance the intracellular cAMP production,clearly enhances cAMP production
